Reference: patent US11718622B2, “Heterocyclic adenosine receptor antagonists” (Exelixis, Inc., priority 2020, dated 2023)

Legend:
[1] = molecular target: Adenosine A2a (ADORA2A) receptor (Homo sapiens (Human), UniProt P29274); experiment: ADORA2A Receptor Binding Assay; conditions: radioligand binding, membrane stock
In short: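 Test compounds incubated with A2a receptor membranes and a ³H-labelled radioligand for 2 hours at room temperature, then filtered through PEI-presoaked GF/C plates and washed. Filter-bound ³H counted by scintillation; % inhibition calculated from background-subtracted signal relative to high control.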

[2] = molecular target: Adenosine A2B (ADORA2B) receptor (Homo sapiens (Human), UniProt P29275); experiment: ADORA2B Receptor Binding Assay; conditions: radioligand binding, membrane stock
In short: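 Radioligand competition binding on human A2B receptor membranes, 1 h at room temperature, then filtration through BSA-presoaked GF/C filters and ³H counting by scintillation. Inhibition expressed as % of high control after background subtraction.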

Sequence of Adenosine A2B (ADORA2B) receptor (P29275 whole entry): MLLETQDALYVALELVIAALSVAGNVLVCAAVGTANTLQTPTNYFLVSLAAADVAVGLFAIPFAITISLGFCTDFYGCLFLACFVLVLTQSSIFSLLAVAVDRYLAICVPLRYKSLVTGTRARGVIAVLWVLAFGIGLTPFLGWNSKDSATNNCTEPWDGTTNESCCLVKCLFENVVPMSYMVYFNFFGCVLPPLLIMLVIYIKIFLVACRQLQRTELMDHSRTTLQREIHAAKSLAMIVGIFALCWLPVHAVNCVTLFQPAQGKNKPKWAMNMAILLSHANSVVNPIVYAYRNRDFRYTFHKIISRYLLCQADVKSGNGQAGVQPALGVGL
Sequence of Adenosine A2a (ADORA2A) receptor (P29274 whole entry): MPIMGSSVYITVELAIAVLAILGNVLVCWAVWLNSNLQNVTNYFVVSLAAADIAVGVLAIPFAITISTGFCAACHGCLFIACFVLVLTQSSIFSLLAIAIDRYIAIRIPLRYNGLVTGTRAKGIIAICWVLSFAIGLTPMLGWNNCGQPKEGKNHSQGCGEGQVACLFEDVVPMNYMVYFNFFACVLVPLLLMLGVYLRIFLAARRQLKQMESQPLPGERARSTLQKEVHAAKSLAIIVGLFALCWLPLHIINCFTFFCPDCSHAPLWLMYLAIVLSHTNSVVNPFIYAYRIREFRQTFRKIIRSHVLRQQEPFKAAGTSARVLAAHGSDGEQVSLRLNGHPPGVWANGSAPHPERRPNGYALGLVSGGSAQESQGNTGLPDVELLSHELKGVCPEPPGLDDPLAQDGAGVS

SMILES	IC50 [1] [nM]	IC50 [2] [nM]
CC(=O)c1cccc(-c2nc(NC(=O)OC(C)(C)C)cc3nc(C)nn23)c1 [Compound 94, tert-butyl N-[5-(3-acetylphenyl)-2-methyl-[1,2,4]triazolo[1,5-c]pyrimidin-7-yl]carbamate]	> 1000	> 1000
CC(=O)c1cccc(-c2nc(N)cc3nc(C)nn23)c1 [Compound 95, 1-[3-(7-amino-2-methyl-[1,2,4]triazolo[1,5-c]pyrimidin-5-yl)phenyl]ethanone]	> 1000	> 1000
CC(=O)c1cccc(-c2nc(NC(=O)C3CC3)cc3nc(C)nn23)c1 [Compound 96, N-[5-(3-acetylphenyl)-2-methyl-[1,2,4]triazolo[1,5-c]pyrimidin-7-yl]cyclopropanecarboxamide]	100 to 1000	100 to 1000
Cc1nc2c3c(nc(-c4ccc(C)o4)n2n1)NC(=O)C3 [Compound 97, 4-methyl-7-(5-methylfuran-2-yl)-3,5,6,8,10-pentazatricyclo[7.3.0.0^2,6]dodeca-1(9),2,4,7-tetraen-11-one]	< 10	10 to 100
Cc1ccc(-c2nc3c(c4nc(C(C)C)nn24)CC(=O)N3)o1 [Compound 98, 7-(5-methylfuran-2-yl)-4-propan-2-yl-3,5,6,8,10-pentazatricyclo[7.3.0.0^2,6]dodeca-1(9),2,4,7-tetraen-11-one]	10 to 100	100 to 1000
Cc1nc2cc(NC(=O)C3CC3)nc(-c3ccc(S(C)(=O)=O)cc3)n2n1 [Compound 99, A-[2-methyl-5-(4-methylsulfonylphenyl)-[1,2,4]triazolo[1,5-c]pyrimidin-7-yl]cyclopropanecarboxamide]	> 1000	> 1000
Cc1nc2cc(NC(=O)OC(C)(C)C)nc(-c3ccc(S(C)(=O)=O)cc3)n2n1 [Compound 100, tert-butyl N-[2-methyl-5-(4-methylsulfonylphenyl)-[1,2,4]triazolo[1,5-c]pyrimidin-7-yl]carbamate]	> 1000	> 1000
CC(=O)Nc1cc2nc(C)nn2c(-c2ccc(S(C)(=O)=O)cc2)n1 [Compound 101, N-[2-methyl-5-(4-methylsulfonylphenyl)-[1,2,4]triazolo[1,5-c]pyrimidin-7-yl]acetamide]	> 1000	> 1000
Cc1nc2c3cn[nH]c3nc(-c3ccc(C)o3)n2n1 [Compound 102, 4-methyl-7-(5-methylfuran-2-yl)-3,5,6,8,10,11-hexazatricyclo[7.3.0.0^2,6]dodeca-1(9),2,4,7,11-pentaene]	10 to 100	10 to 100
Cc1nc2cc(NC(=O)N3CCCC3)nc(-c3ccco3)n2n1 [Compound 103, N-[5-(furan-2-yl)-2-methyl-[1,2,4]triazolo[1,5-c]pyrimidin-7-yl]pyrrolidine-1-carboxamide]	10 to 100	100 to 1000
Cc1nc2cc(NC(=O)N3CC[C@@H](O)C3)nc(-c3ccco3)n2n1 [Compound 104, (3R)-N-[5-(furan-2-yl)-2-methyl-[1,2,4]triazolo[1,5-c]pyrimidin-7-yl]-3-hydroxypyrrolidine-1-carboxamide]	100 to 1000	> 1000
CC(=O)c1cccc(-c2nc(N)c(Cl)c3nc(C)nn23)c1 [Compound 105, 1-[3-(7-amino-8-chloro-2-methyl-[1,2,4]triazolo[1,5-c]pyrimidin-5-yl)phenyl]ethanone]	10 to 100	100 to 1000
Cc1nc2cc(N)nc(-c3ccc(S(C)(=O)=O)cc3)n2n1 [Compound 106, 2-methyl-5-(4-methylsulfonylphenyl)-[1,2,4]triazolo[1,5-c]pyrimidin-7-amine]	> 1000	> 1000
Cc1nc2cc(NC(=O)N3CC[C@H](O)C3)nc(-c3ccco3)n2n1 [Compound 107, (3S)-N-[5-(furan-2-yl)-2-methyl-[1,2,4]triazolo[1,5-c]pyrimidin-7-yl]-3-hydroxypyrrolidine-1-carboxamide]	> 1000	> 1000
CNC(=O)Nc1cc2nc(C)nn2c(-c2ccco2)n1 [Compound 108, 1-[5-(furan-2-yl)-2-methyl-[1,2,4]triazolo[1,5-c]pyrimidin-7-yl]-3-methylurea]	< 10	< 10
CC(=O)Nc1cc2nc(C3COC3)nn2c(-c2ccc(C)o2)n1 [Compound 109, N-[5-(5-methylfuran-2-yl)-2-(oxetan-3-yl)-[1,2,4]triazolo[1,5-c]pyrimidin-7-yl]acetamide]	< 10	10 to 100
Cc1ccc(-c2nc(NC(=O)C3CC3)cc3nc(C4COC4)nn23)o1 [Compound 110, N-[5-(5-methylfuran-2-yl)-2-(oxetan-3-yl)-[1,2,4]triazolo[1,5-c]pyrimidin-7-yl]cyclopropanecarboxamide]	< 10	10 to 100
COc1ccc(-c2nc(NC(=O)C3CC3)cc3nc(C)nn23)cc1 [Compound 111, N-[5-(4-methoxyphenyl)-2-methyl-[1,2,4]triazolo[1,5-c]pyrimidin-7-yl]cyclopropanecarboxamide]	10 to 100	10 to 100

SMILES	IC50 [1] [nM]	IC50 [2] [nM]
COc1ccc(-c2nc(NC(=O)OC(C)(C)C)cc3nc(C)nn23)cc1 [Compound 112, tert-butyl N-[5-(4-methoxyphenyl)-2-methyl-[1,2,4]triazolo[1,5-c]pyrimidin-7-yl]carbamate]	> 1000	> 1000
COc1ccc(-c2nc(NC(C)=O)cc3nc(C)nn23)cc1 [Compound 113, N-[5-(4-methoxyphenyl)-2-methyl-[1,2,4]triazolo[1,5-c]pyrimidin-7-yl]acetamide]	100 to 1000	100 to 1000
Cc1nc2cc(NC(=O)C3CC3)nc(-c3ccc(S(N)(=O)=O)cc3)n2n1 [Compound 114, N-[2-methyl-5-(4-sulfamoylphenyl)-[1,2,4]triazolo[1,5-c]pyrimidin-7-yl]cyclopropanecarboxamide]	> 1000	> 1000
COc1ccc(-c2nc(N)cc3nc(C)nn23)cc1 [Compound 115, 5-(4-methoxyphenyl)-2-methyl-[1,2,4]triazolo[1,5-c]pyrimidin-7-amine]	100 to 1000	> 1000
Cc1nc2cc(NC(=O)C3CC3)nc(-c3ccc(S(=O)(=O)N(C)C)cc3)n2n1 [Compound 116, N-[5-[4-(dimethylsulfamoyl)phenyl]-2-methyl-[1,2,4]triazolo[1,5-c]pyrimidin-7-yl]cyclopropanecarboxamide]	> 1000	> 1000
CC(=O)Nc1cc2nc(C)nn2c(-c2ccc(S(=O)(=O)N(C)C)cc2)n1 [Compound 117, N-[5-[4-(dimethylsulfamoyl)phenyl]-2-methyl-[1,2,4]triazolo[1,5-c]pyrimidin-7-yl]acetamide]	> 1000	> 1000
Cc1nc2cc(NC(=O)OC(C)(C)C)nc(-c3ccc(S(=O)(=O)N(C)C)cc3)n2n1 [Compound 118, tert-butyl N-[5-[4-(dimethylsulfamoyl)phenyl]-2-methyl-[1,2,4]triazolo[1,5-c]pyrimidin-7-yl]carbamate]	> 1000	> 1000
Cc1nc2cc(N)nc(-c3ccc(S(=O)(=O)N(C)C)cc3)n2n1 [Compound 119, 4-(7-amino-2-methyl-[1,2,4]triazolo[1,5-c]pyrimidin-5-yl)-N,N-dimethylbenzenesulfonamide]	> 1000	> 1000
Cc1nc2c(nc(-c3ccc(C)o3)n3nc(C(C)C)nc23)[nH]1 [Compound 120, 2-methyl-5-(5-methylfuran-2-yl)-8-propan-2-yl-3H-[1,2,4]triazolo[5,1-f]purine]	< 10	10 to 100
Cc1ccc(-c2nc3[nH]ncc3c3nc(C(C)C)nn23)o1 [Compound 121, 7-(5-methylfuran-2-yl)-4-propan-2-yl-3,5,6,8,10,11-hexazatricyclo[7.3.0.0^2,6]dodeca-1(9),2,4,7,11-pentaene]	< 10	10 to 100
CC(=O)Nc1cc2nc(C3CNC3)nn2c(-c2ccco2)n1 [Compound 122, N-[2-(azetidin-3-yl)-5-(furan-2-yl)-[1,2,4]triazolo[1,5-c]pyrimidin-7-yl]acetamide]	100 to 1000	> 1000
O=C(Nc1cc2nc(C3CNC3)nn2c(-c2ccco2)n1)C1CC1 [Compound 123, N-[2-(azetidin-3-yl)-5-(furan-2-yl)-[1,2,4]triazolo[1,5-c]pyrimidin-7-yl]cyclopropanecarboxamide]	10 to 100	> 1000
Cc1nc2cc(NC(=O)OC(C)(C)C)nc(-c3ccc(S(=O)(=O)O)cc3)n2n1 [Compound 124, 4-[2-methyl-7-[(2-methylpropan-2-yl)oxycarbonylamino]-[1,2,4]triazolo[1,5-c]pyrimidin-5-yl]benzenesulfonic acid]	100 to 1000	> 1000
Cc1nc2cc(NC(=O)C3CC3)nc(-c3ccc(S(=O)(=O)O)cc3)n2n1 [Compound 125, 4-[7-(cyclopropanecarbonylamino)-2-methyl-[1,2,4]triazolo[1,5-c]pyrimidin-5-yl]benzenesulfonic acid]	> 1000	> 1000
CC(=O)Nc1cc2nc(C(F)F)nn2c(-c2ccc(C)o2)n1 [Compound 126, N-[2-(difluoromethyl)-5-(5-methylfuran-2-yl)-[1,2,4]triazolo[1,5-c]pyrimidin-7-yl]acetamide]	< 10	< 10
CC(=O)Nc1cc2nc(CF)nn2c(-c2ccc(C)o2)n1 [Compound 127, N-[2-(fluoromethyl)-5-(5-methylfuran-2-yl)-[1,2,4]triazolo[1,5-c]pyrimidin-7-yl]acetamide]	< 10	< 10
Cc1nc2cc(NC(=O)C3CC3)nc(-c3ccc(F)c(F)c3)n2n1 [Compound 128, N-[5-(3,4-difluorophenyl)-2-methyl-[1,2,4]triazolo[1,5-c]pyrimidin-7-yl]cyclopropanecarboxamide]	10 to 100	100 to 1000
